Like-named read-outs stand apart in the source and are kept apart here.
How the values were obtained:
Format in all cases: biochemical
TEC = biological target: T1, TEC (Homo sapiens, UniProt P42680); assay: Inhibition of a panel of kinases (in vitro HotSpot kinase assay, 33P-ATP, 1 μM ATP); details: for IC50: HotSpot kinase assay, 1 μM ATP; for TEC/Btk: ratio of TEC IC50 to Btk IC50 (selectivity)
T1 sequence (P42680 1-631): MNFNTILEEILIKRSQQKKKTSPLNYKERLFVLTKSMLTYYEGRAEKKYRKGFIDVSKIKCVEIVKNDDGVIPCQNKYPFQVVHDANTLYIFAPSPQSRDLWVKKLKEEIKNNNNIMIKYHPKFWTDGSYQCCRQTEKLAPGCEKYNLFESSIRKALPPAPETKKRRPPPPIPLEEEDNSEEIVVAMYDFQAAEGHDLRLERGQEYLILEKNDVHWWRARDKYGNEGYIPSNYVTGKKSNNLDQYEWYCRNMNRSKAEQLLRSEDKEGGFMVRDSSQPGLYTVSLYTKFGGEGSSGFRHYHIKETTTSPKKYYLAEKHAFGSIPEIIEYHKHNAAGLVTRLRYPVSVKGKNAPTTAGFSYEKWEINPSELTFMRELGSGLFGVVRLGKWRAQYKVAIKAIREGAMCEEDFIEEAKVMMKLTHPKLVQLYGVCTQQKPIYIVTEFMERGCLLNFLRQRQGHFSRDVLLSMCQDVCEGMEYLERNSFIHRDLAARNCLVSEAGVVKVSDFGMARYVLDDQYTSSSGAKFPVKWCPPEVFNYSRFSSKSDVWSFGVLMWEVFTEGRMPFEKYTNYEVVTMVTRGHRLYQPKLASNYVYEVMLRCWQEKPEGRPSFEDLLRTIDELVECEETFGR
Summary of the method: (§1)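 Purified kinase enzymes were incubated with an appropriate substrate and 33P-labelled ATP at 1 μM ATP. Inhibition was measured radiometrically from incorporation of the 33P label.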

Btk = biological target: T2, Btk (Homo sapiens, UniProt Q06187); assay: Btk in vitro inhibitory activity (one of Method A TR-FRET, Method B electrophoretic mobility shift, Method C radiometric filter binding)
T2 construct: purified from insect cells as a full-length construct containing a N-terminal 6X-His tag; His6 (N); made in house; host or cells: insect cells (Method C)
Summary of the method: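 Method A: TR-FRET with 0.5 nM Btk at [ATP]=Km, EDTA-quenched, 665/615 nm ratio; Ki(app) converted to IC50. Method B: 1 nM full-length His6 human BTK, 1 μM FAM peptide, pH 7.5, mobility-shift product/sum ratio, 12-point 4-parameter fit. Method C: radiometric filter binding, 8 nM His-tagged BTK, 0.2 mg/mL poly-Glu-Tyr.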

panel of kinases = biological target: T3, panel of kinases (Homo sapiens, UniProt P51813); assay: Inhibition of a panel of kinases (in vitro HotSpot kinase assay, 33P-ATP, 1 μM ATP), other kinases; details: BMX wild-type, read-out: BMX-WT IC50
T3 sequence (P51813 1-675): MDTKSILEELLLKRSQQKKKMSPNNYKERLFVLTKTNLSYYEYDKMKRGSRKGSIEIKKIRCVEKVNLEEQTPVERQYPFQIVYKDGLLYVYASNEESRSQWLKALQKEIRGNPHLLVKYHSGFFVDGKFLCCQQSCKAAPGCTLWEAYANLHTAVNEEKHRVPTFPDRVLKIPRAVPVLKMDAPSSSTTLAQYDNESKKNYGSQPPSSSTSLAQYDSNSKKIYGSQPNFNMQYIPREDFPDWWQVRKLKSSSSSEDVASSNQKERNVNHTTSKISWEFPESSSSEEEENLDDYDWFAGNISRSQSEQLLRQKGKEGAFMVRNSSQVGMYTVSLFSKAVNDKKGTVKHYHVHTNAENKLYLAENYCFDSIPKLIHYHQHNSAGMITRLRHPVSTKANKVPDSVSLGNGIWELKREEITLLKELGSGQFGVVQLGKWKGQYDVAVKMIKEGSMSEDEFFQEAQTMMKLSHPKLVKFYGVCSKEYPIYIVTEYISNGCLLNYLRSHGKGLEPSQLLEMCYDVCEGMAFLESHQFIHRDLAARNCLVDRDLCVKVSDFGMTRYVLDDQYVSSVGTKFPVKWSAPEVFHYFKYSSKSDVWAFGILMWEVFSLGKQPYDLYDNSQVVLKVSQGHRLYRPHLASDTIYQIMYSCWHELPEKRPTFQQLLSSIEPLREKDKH
Summary of the method: as §1

[1] = method is one of A, B or C, not stated which, read-out: IC50 values against Btk
[2] = wild-type Btk, read-out: Btk-WT IC50

T2 sequence (Q06187 whole entry): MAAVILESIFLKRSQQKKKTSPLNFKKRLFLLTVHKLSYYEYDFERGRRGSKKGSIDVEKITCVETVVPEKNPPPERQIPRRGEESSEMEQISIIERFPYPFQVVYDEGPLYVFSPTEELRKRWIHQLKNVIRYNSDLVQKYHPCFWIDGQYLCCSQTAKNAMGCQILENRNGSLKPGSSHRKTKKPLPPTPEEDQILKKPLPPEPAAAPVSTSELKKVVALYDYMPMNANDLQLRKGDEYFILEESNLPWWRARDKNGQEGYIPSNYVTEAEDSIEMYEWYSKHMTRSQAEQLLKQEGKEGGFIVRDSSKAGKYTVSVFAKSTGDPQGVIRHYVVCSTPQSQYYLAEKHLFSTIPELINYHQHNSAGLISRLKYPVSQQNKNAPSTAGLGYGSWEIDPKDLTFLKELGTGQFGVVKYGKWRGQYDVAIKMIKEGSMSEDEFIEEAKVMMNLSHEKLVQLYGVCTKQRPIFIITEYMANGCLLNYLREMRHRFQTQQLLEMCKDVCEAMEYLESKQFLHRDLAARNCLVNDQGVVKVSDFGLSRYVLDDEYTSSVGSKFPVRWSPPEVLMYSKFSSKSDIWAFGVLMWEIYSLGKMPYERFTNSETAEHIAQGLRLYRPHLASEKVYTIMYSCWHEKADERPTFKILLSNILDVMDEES

SMILES	IC50 (TEC)	TEC/Btk (TEC)	IC50 (Btk; [1])	IC50 (Btk; [2])	IC50 (panel of kinases)
C=CC(=O)N1CCC[C@@H](Nc2n[nH]c3nccc(-c4ccc(CNC(=O)c5cc(C(C)C)on5)c(F)c4)c23)[C@H]1C [Example 173, N-{[2-fluoro-4-(3-{[(2R,3R)-2-methyl-1-(prop-2-enoyl)piperidin-3-yl]amino}-1H-pyrazolo[3,4-b]pyridin-4-yl)phenyl]methyl}-5-(propan-2-yl)-1,2-oxazole-3-carboxamide]	9 nM	83	< 10 nM	0.104 nM	6 nM
CC(C)(C)c1nc(C(=O)NCc2ccc(-c3ccnc4[nH]nc(N[C@@H]5CCNC5)c34)cc2)no1 [Example 174, 5-tert-butyl-N-{[4-(3-{[(3R)-pyrrolidin-3-yl]amino}-1H-pyrazolo[3,4-b]pyridin-4-yl)phenyl]methyl}-1,2,4-oxadiazole-3-carboxamide]	> 10000 nM	>100		32.7 nM	> 10000 nM
C=CC(=O)N1CC[C@@H](Nc2n[nH]c3nccc(-c4ccc(CNC(=O)c5noc(C(C)(C)C)n5)cc4)c23)C1 [Example 175, 5-tert-butyl-N-{[4-(3-{[(3R)-1-(prop-2-enoyl)pyrrolidin-3-yl]amino}-1H-pyrazolo[3,4-b]pyridin-4-yl)phenyl]methyl}-1,2,4-oxadiazole-3-carboxamide]	55 nM	289	< 10 nM	0.189 nM	201 nM
C=CC(=O)N1CC[C@@H](Nc2n[nH]c3nccc(-c4ccc(CNC(=O)c5cnc(C(C)C)o5)c(F)c4)c23)C1 [Example 176, N-{[2-fluoro-4-(3-{[(3R)-1-(prop-2-enoyl)pyrrolidin-3-yl]amino}-1H-pyrazolo[3,4-b]pyridin-4-yl)phenyl]methyl}-2-(propan-2-yl)-1,3-oxazole-5-carboxamide]	149 nM	100	< 10 nM	1.49 nM	146 nM
C=CC(=O)N1CC[C@@H](Nc2n[nH]c3nccc(-c4ccc(CNC(=O)c5cnc(N(C)C)o5)c(F)c4)c23)C1 [Example 177, 2-(dimethylamino)-N-{[2-fluoro-4-(3-{[(3R)-1-(prop-2-enoyl)pyrrolidin-3-yl]amino}-1H-pyrazolo[3,4-b]pyridin-4-yl)phenyl]methyl}-1,3-oxazole-5-carboxamide]	99 nM	25	< 10 nM	3.91 nM	43 nM
CC(C)(C)c1noc(C(=O)NCc2ccc(-c3ccnc4[nH]nc(N5CCC(N)CC5)c34)cc2F)n1 [Example 178, N-({4-[3-(4-aminopiperidin-1-yl)-1H-pyrazolo[3,4-b]pyridin-4-yl]-2-fluorophenyl}methyl)-3-tert-butyl-1,2,4-oxadiazole-5-carboxamide]	722 nM	1207	< 10 nM	0.598 nM	1180 nM
C=CC(=O)NC1CCN(c2n[nH]c3nccc(-c4ccc(CNC(=O)c5nc(C(C)(C)C)no5)c(F)c4)c23)CC1 [Example 179, 3-tert-butyl-N-[(2-fluoro-4-{3-[4-(prop-2-enamido)piperidin-1-yl]-1H-pyrazolo[3,4-b]pyridin-4-yl}phenyl)methyl]-1,2,4-oxadiazole-5-carboxamide]	220 nM	2294	< 10 nM	0.0959 nM	305 nM
CC(C)(C)c1nc(C(=O)NCc2ccc(-c3ccnc4[nH]nc(N[C@@H]5CCNC5)c34)cc2F)co1 [Example 180, 2-tert-butyl-N-{[2-fluoro-4-(3-{[(3R)-pyrrolidin-3-yl]amino}-1H-pyrazolo[3,4-b]pyridin-4-yl)phenyl]methyl}-1,3-oxazole-4-carboxamide]	7180 nM	302		23.8 nM	> 10000 nM
CC(C)c1noc(C(=O)NCc2ccc(-c3ccnc4[nH]nc(N5CC[C@@H](N)C5)c34)cc2F)n1 [Example 181, N-[(4-{3-[(3R)-3-aminopyrrolidin-1-yl]-1H-pyrazolo[3,4-b]pyridin-4-yl}-2-fluorophenyl)methyl]-3-(propan-2-yl)-1,2,4-oxadiazole-5-carboxamide]	1000 nM	166		6.04 nM	761 nM
CC(C)c1cc(C(=O)NCc2ccc(-c3ccnc4[nH]nc(N5CC[C@@H](N)C5)c34)cc2F)on1 [Example 182, N-[(4-{3-[(3R)-3-aminopyrrolidin-1-yl]-1H-pyrazolo[3,4-b]pyridin-4-yl}-2-fluorophenyl)methyl]-3-(propan-2-yl)-1,2-oxazole-5-carboxamide]	2610 nM	180		14.5 nM	1320 nM
C=CC(=O)N[C@@H]1CCN(c2n[nH]c3nccc(-c4ccc(CNC(=O)c5cc(C(C)C)no5)c(F)c4)c23)C1 [Example 184, N-{[2-fluoro-4-(3-{(3R)-3-[(prop-2-enoyl)amino]pyrrolidin-1-yl}-1H-pyrazolo[3,4-b]pyridin-4-yl)phenyl]methyl}-3-(propan-2-yl)-1,2-oxazole-5-carboxamide]	33.4 nM	430		0.0776 nM	30.7 nM
CC(=O)N[C@@H]1CCN(c2n[nH]c3nccc(-c4ccc(CNC(=O)c5cc(C(C)C)no5)c(F)c4)c23)C1 [Example 185, N-[(4-{3-[(3R)-3-acetamidopyrrolidin-1-yl]-1H-pyrazolo[3,4-b]pyridin-4-yl}-2-fluorophenyl)methyl]-3-(propan-2-yl)-1,2-oxazole-5-carboxamide]	2240 nM	301		7.43 nM	1560 nM
C[C@@H](NC(=O)c1nc(C(C)(C)C)no1)c1ccc(-c2ccnc3[nH]nc(N4CCC(N)CC4)c23)cc1F [Example 188, N-[(1R)-1-{4-[3-(4-aminopiperidin-1-yl)-1H-pyrazolo[3,4-b]pyridin-4-yl]-2-fluorophenyl}ethyl]-3-tert-butyl-1,2,4-oxadiazole-5-carboxamide]	802 nM	3004		0.267 nM	1520 nM
C[C@@H](NC(=O)c1noc(C(C)(C)C)n1)c1ccc(-c2ccnc3[nH]nc(N[C@@H]4CC[C@H](C)N(C(=O)N(C)C)C4)c23)cc1F [Example 191, (2S,5R)-5-{[4-(4-{(1R)-1-[(5-tert-butyl-1,2,4-oxadiazole-3-carbonyl)amino]ethyl}-3-fluorophenyl)-1H-pyrazolo[3,4-b]pyridin-3-yl]amino}-N,N,2-trimethylpiperidine-1-carboxamide]	340 nM	1033		0.329 nM	310 nM
C[C@@H](NC(=O)c1cc(C(C)(C)O)on1)c1ccc(-c2ccnc3[nH]nc(N[C@@H]4CC[C@H](C)N(C(=O)N(C)C)C4)c23)cc1F [Example 192, (2S,5R)-5-[(4-{3-fluoro-4-[(1R)-1-{[5-(2-hydroxypropan-2-yl)-1,2-oxazole-3-carbonyl]amino}ethyl]phenyl}-1H-pyrazolo[3,4-b]pyridin-3-yl)amino]-N,N,2-trimethylpiperidine-1-carboxamide]	3010 nM	105		28.6 nM	3130 nM

— patent publication US20180194762A1 (Pharmacyclics LLC, priority 2017, published 2018)
